Laboratory results taken from patent US9840510B1, “Pyrazolo[1,5-a]pyrimidinyl carboxamide compounds and their use in the treatment of medical disorders” (Lysosomal Therapeutics Inc., priority 2016, dated 2017).
In brackets after ≈: the same amount, converted by molar mass.

Experiment: Compound solubility in water
Assay type: physicochemical

| Structure (SMILES) | solubility [µg/mL] | Compound Solubility in Water [µg/mL] |
| --- | --- | --- |
| Cc1cc(-c2cccc3ncoc23)nc2c(C(=O)N[C@@H](C)C3CC3)cnn12 [III-217] | 3.2 (≈ 8.85 µM) | – |
| Cc1cc(-c2ccns2)nc2c(C(=O)N[C@@H](C3CC3)C(F)(F)F)cnn12 [III-101] | 1.3 (≈ 3.41 µM) | – |
| Cc1cc(-c2cccc3ncn(C)c23)nc2c(C(=O)NC(C3CC3)C(F)(F)F)cnn12 (stereo not drawn) [III-309] | 31.4 (≈ 73.3 µM) | – |
| Cc1cc(N2CCN(C(C)C)C2=O)nc2c(C(=O)NC(C3CC3)C(F)(F)F)cnn12 (stereo not drawn) [III-225] | 19.3 (≈ 45.5 µM) | – |
| Cc1coc(-c2cc(C)n3ncc(C(=O)N[C@H](C4CC4)C(F)(F)F)c3n2)n1 [III-255] | 1.6 (≈ 4.22 µM) | – |
| Cc1cc(-c2ccc(F)c(C#N)c2)nc2c(C(=O)NC(C)C(F)(F)F)cnn12 (stereo not drawn) [III-159] | 3.8 (≈ 9.71 µM) | – |
| Cc1cc(-c2ccc(F)o2)nc2c(C(=O)NC(C3CC3)C(F)(F)F)cnn12 (stereo not drawn) [III-264] | 0.4 (≈ 1.05 µM) | – |
| CCCO[C@H]1CC[C@H](NC(=O)c2cnn3c(C)cc(-c4cccnc4)nc23)CC1 [III-40] | 20 (≈ 50.8 µM) | – |
| Cc1cc(-c2cccnc2)n2ncc(C(=O)NC(C)(C)C3CC3)c2n1 [III-19] | 5.3 (≈ 15.8 µM) | – |
| Cc1cc(-c2cccc(-c3ncccn3)n2)nc2c(C(=O)NC(C3CC3)C(F)(F)F)cnn12 (stereo not drawn) [III-175] | 1 (≈ 2.21 µM) | – |
| COc1cc(F)cc(-c2cc(C)n3ncc(C(=O)N[C@@H](C)C4CC4)c3n2)c1 [III-137] | 0.8 (≈ 2.17 µM) | – |
| Cc1cc(-c2sccc2C#N)nc2c(C(=O)N[C@@H](C)C3CC3)cnn12 [III-301] | 1.1 (≈ 3.13 µM) | – |
| C#CC(C)(C)NC(=O)c1cnn2c(C)cc(-c3cccc(Cl)n3)nc12 [III-63] | 0.2 (≈ 0.565 µM) | – |
| Cc1cc(-c2cccc3ncoc23)nc2c(C(=O)NC(C)(C)C(F)(F)F)cnn12 [III-219] | 2.7 (≈ 6.69 µM) | – |
| CNC(=O)c1cccc(-c2cc(C)n3ncc(C(=O)NC(C4CC4)C(F)(F)F)c3n2)c1 (stereo not drawn) [III-414] | 1.6 (≈ 3.71 µM) | – |
| Cc1cc(C)n2ncc(C(=O)N[C@H]3CC[C@H](OCC(C)C)CC3)c2n1 [III-191] | 26.3 (≈ 76.4 µM) | – |
| Cc1cc(C(F)(F)F)nc2c(C(=O)NC(C)(C)C3CC3)cnn12 [III-68] | 11.9 (≈ 36.5 µM) | – |
| Cc1cc(-c2ccc3ocnc3c2)nc2c(C(=O)N[C@H](C3CC3)C(F)(F)F)cnn12 [III-109] | 0.5 (≈ 1.2 µM) | – |
| COc1cccc(-c2cc(C)n3ncc(C(=O)NC(C)(C)C(F)(F)F)c3n2)c1 [III-405] | 1.5 (≈ 3.82 µM) | – |
| Cc1cc(-c2ccccc2)nc2c(C(=O)N[C@@H](C)C3CC3)cnn12 [III-136] | 5.1 (≈ 15.9 µM) | – |
| Cc1cc(-c2ccc(C#N)o2)nc2c(C(=O)NC(C3CC3)C(F)(F)F)cnn12 (stereo not drawn) [III-185] | 6.3 (≈ 16.2 µM) | – |
| C#CC(C)(C)NC(=O)c1cnn2c(C)cc(-c3ccns3)nc12 [III-412] | 3.7 (≈ 11.4 µM) | – |
| Cc1cc(-c2cnccc2F)nc2c(C(=O)NC(C)C(F)(F)F)cnn12 (stereo not drawn) [III-199] | 7.8 (≈ 21.2 µM) | – |
| Cc1coc(-c2cc(C)n3ncc(C(=O)N[C@@H](C4CC4)C(F)(F)F)c3n2)n1 [III-256] | 0.5 (≈ 1.32 µM) | – |
| Cc1cc(-c2cnccc2C(F)(F)F)nc2c(C(=O)N[C@@H](C3CC3)C(F)(F)F)cnn12 [III-354] | 13.5 (≈ 30.4 µM) | – |
| Cc1cc(C)n2ncc(C(=O)N[C@@H](C)C3CC3)c2n1 [III-1] | 27 (≈ 105 µM) | – |

| Structure (SMILES) | solubility [µg/mL] | Compound Solubility in Water [µg/mL] |
| --- | --- | --- |
| Cc1cc(-c2cccc(Cl)n2)nc2c(C(=O)NC(C)(C)C3CC3)cnn12 [III-62] | 1.2 (≈ 3.24 µM) | – |
| Cc1cc(N2CC(C(C)C)OC2=O)nc2c(C(=O)NC(C3CC3)C(F)(F)F)cnn12 (stereo not drawn) [III-316] | 1.3 (≈ 3.06 µM) | – |
| Cc1cc(N2CCC(F)(F)CC2)nc2c(C(=O)NC(C)C3CC3)cnn12 (stereo not drawn) [III-60] | 4.4 (≈ 12.1 µM) | – |
| Cc1cc(-c2ccccn2)nc2c(C(=O)NC(C)C(F)(F)F)cnn12 (stereo not drawn) [III-50] | 1.6 (≈ 4.58 µM) | – |
| C#Cc1cncc(-c2cc(C)n3ncc(C(=O)N[C@@H](C4CC4)C(F)(F)F)c3n2)c1 [III-383] | 0.2 (≈ 0.501 µM) | – |
| Cc1cc(NC2CC2)nc2c(C(=O)NC(C3CC3)C(F)(F)F)cnn12 (stereo not drawn) [III-44] | 3 (≈ 8.49 µM) | – |
| COc1cc(-c2cc(C)n3ncc(C(=O)NC(C)C(F)(F)F)c3n2)ccc1F (stereo not drawn) [III-148] | 1.2 (≈ 3.03 µM) | – |
| Cc1cc(C#N)c(-c2cc(C)n3ncc(C(=O)NC(C4CC4)C(F)(F)F)c3n2)o1 (stereo not drawn) [III-245] | 0.008 (≈ 0.0198 µM) | – |
| Cc1cc(-c2cncc(Cl)c2)nc2c(C(=O)NC(C)C(F)(F)F)cnn12 (stereo not drawn) [III-200] | 1 (≈ 2.61 µM) | – |
| Cc1cc(-n2ccc(F)n2)nc2c(C(=O)N[C@H](C3CC3)C(F)(F)F)cnn12 [III-173] | 1.4 (≈ 3.66 µM) | – |
| COCCOc1ccc(-c2cc(C)n3ncc(C(=O)NC(C)C(F)(F)F)c3n2)cc1F (stereo not drawn) [III-298] | 1.5 (≈ 3.41 µM) | – |
| Cc1ncc(-c2cc(C)n3ncc(C(=O)NC(C4CC4)C(F)(F)F)c3n2)o1 (stereo not drawn) [III-246] | 3.1 (≈ 8.17 µM) | – |
| COc1cccc(-c2cc(C)n3ncc(C(=O)N[C@H](C)C(F)(F)F)c3n2)c1 [III-90] | 2 (≈ 5.29 µM) | – |
| COc1cccc(-c2cc(C)n3ncc(C(=O)N[C@@H](C)C4CC4)c3n2)c1 [III-57] | 2.7 (≈ 7.7 µM) | – |
| Cc1cc(-c2ncccc2Cl)nc2c(C(=O)NC(C3CC3)C(F)(F)F)cnn12 (stereo not drawn) [III-206] | 2.1 (≈ 5.12 µM) | – |
| Cc1cc(-c2nc3ccccc3n2C)nc2c(C(=O)NC(C3CC3)C(F)(F)F)cnn12 (stereo not drawn) [III-312] | 0.3 (≈ 0.7 µM) | – |
| Cc1cc(-c2cncc(Cl)c2)nc2c(C(=O)N[C@@H](C)C(F)(F)F)cnn12 [III-202] | 2.5 (≈ 6.51 µM) | – |
| C#CC(C)(C)NC(=O)c1cnn2c(C)cc(-c3cccc(OC4CC4)c3)nc12 [III-82] | 1.5 (≈ 4.01 µM) | – |
| Cc1cc(C)n2ncc(C(=O)N[C@@H](C3CC3)C(F)(F)F)c2n1 [III-11] | 13.4 (≈ 42.9 µM) | – |
| Cc1cnc(F)c(-c2cc(C)n3ncc(C(=O)N[C@H](C4CC4)C(F)(F)F)c3n2)c1 [III-374] | 1.1 (≈ 2.7 µM) | – |
| Cc1cc(-c2ccc(Cl)cn2)nc2c(C(=O)NC(C3CC3)C(F)(F)F)cnn12 (stereo not drawn) [III-208] | 0.04 (≈ 0.0976 µM) | – |
| Cc1cc(-c2ccccn2)nc2c(C(=O)NC(C)(C)C3CC3)cnn12 [III-16] | 1.1 (≈ 3.28 µM) | – |
| Cc1cc(-c2ccc(F)nc2)nc2c(C(=O)NC(C3CC3)C(F)(F)F)cnn12 (stereo not drawn) [III-112] | – | 0.8 |
| Cc1cc(-c2ccc(F)cc2)nc2c(C(=O)N[C@@H](C)C3CC3)c(Cl)nn12 [III-32] | 0.1 (≈ 0.268 µM) | – |
| CCc1cc(-c2ccccn2)n2ncc(C(=O)NC(C)C(F)(F)F)c2n1 (stereo not drawn) [III-51] | 14.1 (≈ 38.8 µM) | – |
| Cc1cc(C)n2ncc(C(=O)NC(C)(C)C3CC3)c2n1 [III-2] | 27.4 (≈ 101 µM) | – |

| Structure (SMILES) | solubility [µg/mL] | Compound Solubility in Water [µg/mL] |
| --- | --- | --- |
| Cc1nc2cc(-c3cc(C)n4ncc(C(=O)N[C@@H](C)C5CC5)c4n3)ccc2o1 [III-321] | 1.9 (≈ 5.06 µM) | – |
| CCc1cc(-c2ccccn2)nc2c(C(=O)NC(C)(C)C(F)(F)F)cnn12 [III-407] | 0.09 (≈ 0.238 µM) | – |
| Cc1cc(-c2ccccn2)nc2c(C(=O)NC(C)(C)C(F)(F)F)cnn12 [III-408] | 0.4 (≈ 1.1 µM) | – |
| Cc1ncc(-c2cc(C)n3ncc(C(=O)N[C@H](C4CC4)C(F)(F)F)c3n2)o1 [III-247] | 0.6 (≈ 1.58 µM) | – |
| Cc1cc(C)n2ncc(C(=O)N[C@H]3CC[C@H](OC(C)(C)C)CC3)c2n1 [III-190] | 8.9 (≈ 25.8 µM) | – |
| Cc1cc(-c2cccc(Cl)c2)nc2c(C(=O)NC(C)(C)C(F)(F)F)cnn12 [III-406] | 0.8 (≈ 2.02 µM) | – |
| Cc1nc(-c2cc(C)n3ncc(C(=O)NC(C)(C)C4CC4)c3n2)co1 [III-251] | 3.9 (≈ 11.5 µM) | – |
| Cc1cc(-c2ccncc2)nc2c(C(=O)NC(C)C3CC3)cnn12 (stereo not drawn) [III-28] | 27.6 (≈ 85.9 µM) | – |
| CCc1cc(N2CCN(C(C)C)C2=O)nc2c(C(=O)NC(C)(C)C)cnn12 [III-229] | 13.5 (≈ 36.2 µM) | – |
| Cc1cc(-c2ncccc2F)nc2c(C(=O)NC(C3CC3)C(F)(F)F)cnn12 (stereo not drawn) [III-203] | 0.07 (≈ 0.178 µM) | – |
| Cc1cc(-c2ccc(F)cc2C#N)nc2c(C(=O)N[C@@H](C)C(F)(F)F)cnn12 [III-156] | 0.3 (≈ 0.767 µM) | – |
| Cc1cc(Cl)n2ncc(C(=O)NC(C)(C)C3CC3)c2n1 [III-14] | 10.7 (≈ 36.5 µM) | – |
| Cc1cc(N2C[C@H](c3ccccc3)OC2=O)nc2c(C(=O)NC(C3CC3)C(F)(F)F)cnn12 (stereo partly drawn) [III-314] | 0.2 (≈ 0.435 µM) | – |
| COc1ccc(-c2cc(C)n3ncc(C(=O)N[C@H](C)C(F)(F)F)c3n2)cn1 [III-272] | 3.1 (≈ 8.17 µM) | – |
| Cc1cc(-c2cccc(Cl)n2)nc2c(C(=O)N[C@H](C)C(F)(F)F)cnn12 [III-235] | 6.4 (≈ 16.7 µM) | – |
| COc1ccncc1-c1cc(C)n2ncc(C(=O)NC(C)C(F)(F)F)c2n1 (stereo not drawn) [III-269] | 12.7 (≈ 33.5 µM) | – |
| Cc1ccc(-c2cc(C)n3ncc(C(=O)N[C@@H](C4CC4)C(F)(F)F)c3n2)cn1 [III-280] | 1.3 (≈ 3.34 µM) | – |
| COc1cc(-c2cc(C)n3ncc(C(=O)NC(C4CC4)C(F)(F)F)c3n2)ccc1F (stereo not drawn) [III-147] | 0.4 (≈ 0.947 µM) | – |
| COc1c(C#N)cccc1-c1cc(C)n2ncc(C(=O)NC(C3CC3)C(F)(F)F)c2n1 (stereo not drawn) [III-141] | 1.1 (≈ 2.56 µM) | – |
| Cc1cc(-c2cccnc2)nc2c(C(=O)N[C@H]3CC[C@H](OC(C)(C)C)CC3)cnn12 [III-38] | 18.2 (≈ 44.7 µM) | – |
| Cc1cc(-c2cc(C)n3ncc(C(=O)N[C@H](C4CC4)C(F)(F)F)c3n2)sn1 [III-215] | 0.3 (≈ 0.759 µM) | – |
| COc1ccc(F)cc1-c1cc(C)n2ncc(C(=O)NC(C)C(F)(F)F)c2n1 (stereo not drawn) [III-194] | 0.4 (≈ 1.01 µM) | – |
| Cc1cc(-c2cccc(Oc3ncccn3)c2)nc2c(C(=O)NC(C3CC3)C(F)(F)F)cnn12 (stereo not drawn) [III-103] | 0.8 (≈ 1.71 µM) | – |
| Cc1cc(-c2cccc(F)n2)nc2c(C(=O)N[C@H](C)C3CC3)cnn12 [III-135] | 1.5 (≈ 4.42 µM) | – |
| Cc1cc(-c2cccc3ncsc23)nc2c(C(=O)NC(C)C(F)(F)F)cnn12 (stereo not drawn) [III-221] | 0.2 (≈ 0.493 µM) | – |
| Cc1cc(-c2ccc(F)cc2)nc2c(C(=O)NC(C)C(F)(F)F)cnn12 (stereo not drawn) [III-164] | 1.1 (≈ 3 µM) | – |
